The subject of the assay is HIV-1 (RF). Kind of assay: HIV RNA assay, microplate based compound evaluation in HIV-1 infected MT-2 cells. To be noted: Human immunodeficiency virus 1, MT2, 72 h; HIV-1 (RF) infected MT-2 cells, 3 days of culture; value used to standardize the virus inoculum; read-out: IC90 (concentration of compound required to reduce the HIV RNA level by 90%). It is filed as cell-based. As for the experimental part:
Plasmid pDAB 72 containing both gag and pol sequences of BH10 (bp 113-1816) cloned into PTZ 19R was prepared according to Erickson-Viitanen et al. AIDS Research and Human Retroviruses 1989, 5, 577. The plasmid was linearized with Bam HI prior to the generation of in vitro RNA transcripts using the Riboprobe Gemini system II kit (Promega) with T7 RNA polymerase. Synthesized RNA was purified by treatment with RNase free DNAse (Promega), phenol-chloroform extraction, and ethanol precipitation. RNA transcripts were dissolved in water, and stored at −70° C. The concentration of RNA was determined from the A260.
Biotinylated capture probes were purified by HPLC after synthesis on an Applied Biosystems (Foster City, Calif.) DNA synthesizer by addition of biotin to the 5′ terminal end of the oligonucleotide, using the biotin-phosphoramidite reagent of Cocuzza, Tet. Lett. 1989, 30, 6287. […]
MT-2 and MT-4 cells were maintained in RPMI 1640 supplemented with 5% fetal calf serum (FCS) for MT-2 cells or 10% FCS for MT-4 cells, 2 mM L-glutamine and 50 μg/mL gentamycin, all from Gibco. […] Infectious titers of HIV-1(RF) stocks were 1-3×10^7 PFU (plaque forming units)/mL as measured by plaque assay on MT-2 cells (see below). […]

≈ marks a conversion by molar mass, not a printed value.

For `Nc1ccn([C@H]2CC[C@@H](CO)O2)c(=O)n1` [ddC, dideoxycytidine], the IC90 turned out to be 0.2 µg/mL (≈ 0.947 µM).

Source of the values: US6809109B2, “2, 4-disubstituted-pyridine N-oxides useful as HIV reverse transcriptase inhibitors” (Bristol-Myers Squibb Company, priority 2002, dated 2004).
